Target: T1, human MDM2 (GST-hMDM2 1-188), interaction with biotinylated-p53 (1-83) (Homo sapiens, UniProt Q00987)
T1 construct: Amino acid residues 1-188 of human MDM2 were expressed; made in house; host or cells: Escherichia coli
Assay: improved HTRF assay (HTRF2 assay), inhibition of HDM2-p53 interaction
Type: binding
Conditions: 0.2 nM GST-hMDM2, 0.5 nM biotinylated-p53, 100 mM KF
Procedure, shortened: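 Time-resolved fluorescence (HTRF) read after >4 h equilibration with SA-XLent/anti-GST cryptate/KF detection reagents. Reaction: compound plus GST-hMDM2 for 20 min at room temperature, then E. coli-expressed biotinylated p53 residues 1-83 for 60 min, 2% DMSO final. Inhibition expressed versus nutlin-3.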

T1 sequence (Q00987 1-188): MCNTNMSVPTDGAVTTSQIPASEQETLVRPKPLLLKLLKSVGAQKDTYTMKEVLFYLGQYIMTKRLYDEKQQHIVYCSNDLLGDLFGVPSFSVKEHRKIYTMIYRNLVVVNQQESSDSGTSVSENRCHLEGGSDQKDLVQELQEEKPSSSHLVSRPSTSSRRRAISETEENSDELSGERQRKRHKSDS

SMILES: CC(C)(C)S(=O)(=O)C[C@H](C1CC1)N1C(=O)[C@@H](CC(=O)Nc2ccccc2)O[C@H](c2cccc(Cl)c2)[C@H]1c1ccc(Cl)cc1 (single isomer, unassigned) [Example 351, 2-((2R,5R,6R)-4-((S)-2-(tert-Butylsulfonyl)-1-cyclopropylethyl)-6-(3-chlorophenyl)-5-(4-chlorophenyl)-3-oxomorpholin-2-yl)-N-phenylacetamide or 2-((2S,5R,6R)-4-((S)-2-(tert-butylsulfonyl)-1-cyclopropylethyl)-6-(3-chlorophenyl)-5-(4-chlorophenyl)-3-oxomorpholin-2-yl)-N-phenylacetamide]
- IC50: 4 nM

SMILES: CC(C)(C)S(=O)(=O)C[C@H](C1CC1)N1C(=O)[C@@H](CC(=O)Nc2ccccc2F)O[C@H](c2cccc(Cl)c2)[C@H]1c1ccc(Cl)cc1 (single isomer, unassigned) [Example 352, 2-((2R,5R,6R)-4-((S)-2-(tert-Butylsulfonyl)-1-cyclopropylethyl)-6-(3-chlorophenyl)-5-(4-chlorophenyl)-3-oxomorpholin-2-yl)-N-(2-fluorophenyl)acetamide or 2-((2S,5R,6R)-4-((S)-2-(tert-butylsulfonyl)-1-cyclopropylethyl)-6-(3-chlorophenyl)-5-(4-chlorophenyl)-3-oxomorpholin-2-yl)-N-(2-fluorophenyl)acetamide]
- IC50: 25 nM

SMILES: CC(C)(C)S(=O)(=O)C[C@H](C1CC1)N1C(=O)[C@@H](CC(=O)Nc2ccccc2F)O[C@H](c2cccc(Cl)c2)[C@H]1c1ccc(Cl)cc1 (single isomer, unassigned) [Example 353, 2-((2R,5R,6R)-4-((S)-2-(tert-Butylsulfonyl)-1-cyclopropylethyl)-6-(3-chlorophenyl)-5-(4-chlorophenyl)-3-oxomorpholin-2-yl)-N-(2-fluorophenyl)acetamide or 2-((2S,5R,6R)-4-((S)-2-(tert-butylsulfonyl)-1-cyclopropylethyl)-6-(3-chlorophenyl)-5-(4-chlorophenyl)-3-oxomorpholin-2-yl)-N-(2-fluorophenyl)acetamide]
- IC50: 9 nM

SMILES: CC(C)(C)S(=O)(=O)C[C@H](C1CC1)N1C(=O)[C@@H](CC(=O)Nc2ccccn2)O[C@H](c2cccc(Cl)c2)[C@H]1c1ccc(Cl)cc1 (single isomer, unassigned) [Example 354, 2-((2R,5R,6R)-4-((S)-2-(tert-Butylsulfonyl)-1-cyclopropylethyl)-6-(3-chlorophenyl)-5-(4-chlorophenyl)-3-oxomorpholin-2-yl)-N-(pyridin-2-yl)acetamide or 2-((2S,5R,6R)-4-((S)-2-(tert-butylsulfonyl)-1-cyclopropylethyl)-6-(3-chlorophenyl)-5-(4-chlorophenyl)-3-oxomorpholin-2-yl)-N-(pyridin-2-yl)acetamide]
- IC50: 2 nM

SMILES: CC(C)(C)S(=O)(=O)C[C@H](C1CC1)N1C(=O)[C@@H](CC(=O)Nc2ccccn2)O[C@H](c2cccc(Cl)c2)[C@H]1c1ccc(Cl)cc1 (single isomer, unassigned) [Example 355, 2-((2R,5R,6R)-4-((S)-2-(tert-Butylsulfonyl)-1-cyclopropylethyl)-6-(3-chlorophenyl)-5-(4-chlorophenyl)-3-oxomorpholin-2-yl)-N-(pyridin-2-yl)acetamide or 2-((2S,5R,6R)-4-((S)-2-(tert-butylsulfonyl)-1-cyclopropylethyl)-6-(3-chlorophenyl)-5-(4-chlorophenyl)-3-oxomorpholin-2-yl)-N-(pyridin-2-yl)acetamide]
- IC50: 4 nM

SMILES: CC(C)(C)S(=O)(=O)C[C@H](C1CC1)N1C(=O)[C@@H](CC(N)=O)O[C@H](c2cccc(Cl)c2)[C@H]1c1ccc(Cl)cc1 (single isomer, unassigned) [Example 356, 2-((2R,5R,6R)-4-((S)-2-(tert-Butylsulfonyl)-1-cyclopropylethyl)-6-(3-chlorophenyl)-5-(4-chlorophenyl)-3-oxomorpholin-2-yl)acetamide or 2-((2S,5R,6R)-4-((S)-2-(tert-butylsulfonyl)-1-cyclopropylethyl)-6-(3-chlorophenyl)-5-(4-chlorophenyl)-3-oxomorpholin-2-yl)acetamide]
- IC50: 10 nM

SMILES: CC(C)(C)S(=O)(=O)C[C@H](C1CC1)N1C(=O)[C@@H](CC(N)=O)O[C@H](c2cccc(Cl)c2)[C@H]1c1ccc(Cl)cc1 (single isomer, unassigned) [Example 357, 2-((2R,5R,6R)-4-((S)-2-(tert-Butylsulfonyl)-1-cyclopropylethyl)-6-(3-chlorophenyl)-5-(4-chlorophenyl)-3-oxomorpholin-2-yl)acetamide or 2-((2S,5R,6R)-4-((S)-2-(tert-butylsulfonyl)-1-cyclopropylethyl)-6-(3-chlorophenyl)-5-(4-chlorophenyl)-3-oxomorpholin-2-yl)acetamide]
- IC50: 6 nM

SMILES: NC(=O)C[C@H]1O[C@H](c2cccc(Cl)c2)[C@@H](c2ccc(Cl)cc2)N([C@H](CN(c2c(F)cccc2F)S(=O)(=O)C2CC2)C2CC2)C1=O (single isomer, unassigned) [Example 358, 2-((2R,5R,6R)-6-(3-Chlorophenyl)-5-(4-chlorophenyl)-4-((S)-1-cyclopropyl-2-(N-(2,6-difluorophenyl)cyclopropanesulfonamido)ethyl)-3-oxomorpholin-2-yl)acetamide or 2-((2S,5R,6R)-6-(3-chlorophenyl)-5-(4-chlorophenyl)-4-((S)-1-cyclopropyl-2-(N-(2,6-difluorophenyl)cyclopropanesulfonamido)ethyl)-3-oxomorpholin-2-yl)acetamide]
- IC50: < 1 nM

SMILES: NC(=O)C[C@H]1O[C@H](c2cccc(Cl)c2)[C@@H](c2ccc(Cl)cc2)N([C@H](CN(c2c(F)cccc2F)S(=O)(=O)C2CC2)C2CC2)C1=O (single isomer, unassigned) [Example 359, 2-((2R,5R,6R)-6-(3-Chlorophenyl)-5-(4-chlorophenyl)-4-((S)-1-cyclopropyl-2-(N-(2,6-difluorophenyl)cyclopropanesulfonamido)ethyl)-3-oxomorpholin-2-yl)acetamide or 2-((2S,5R,6R)-6-(3-chlorophenyl)-5-(4-chlorophenyl)-4-((S)-1-cyclopropyl-2-(N-(2,6-difluorophenyl)cyclopropanesulfonamido)ethyl)-3-oxomorpholin-2-yl)acetamide]
- IC50: < 1 nM

SMILES: NC(=O)C[C@H]1O[C@H](c2cccc(Cl)c2)[C@@H](c2ccc(Cl)cc2)N([C@H](CN(c2ccccc2)S(=O)(=O)C2CC2)C2CC2)C1=O (single isomer, unassigned) [Example 360, 2-((2R,5R,6R)-6-(3-Chlorophenyl)-5-(4-chlorophenyl)-4-((S)-1-cyclopropyl-2-(N-phenylcyclopropanesulfonamido)ethyl)-3-oxomorpholin-2-yl)acetamide or 2-((2S,5R,6R)-6-(3-chlorophenyl)-5-(4-chlorophenyl)-4-((S)-1-cyclopropyl-2-(N-phenylcyclopropanesulfonamido)ethyl)-3-oxomorpholin-2-yl)acetamide]
- IC50: 1 nM

SMILES: NC(=O)C[C@H]1O[C@H](c2cccc(Cl)c2)[C@@H](c2ccc(Cl)cc2)N([C@H](CN(c2ccccc2)S(=O)(=O)C2CC2)C2CC2)C1=O (single isomer, unassigned) [Example 361, 2-((2R,5R,6R)-6-(3-Chlorophenyl)-5-(4-chlorophenyl)-4-((S)-1-cyclopropyl-2-(N-phenylcyclopropanesulfonamido)ethyl)-3-oxomorpholin-2-yl)acetamide or 2-((2S,5R,6R)-6-(3-chlorophenyl)-5-(4-chlorophenyl)-4-((S)-1-cyclopropyl-2-(N-phenylcyclopropanesulfonamido)ethyl)-3-oxomorpholin-2-yl)acetamide]
- IC50: < 1 nM

SMILES: CC(C)(C)S(=O)(=O)C[C@H](CC(F)(F)F)N1C(=O)[C@@H](CC(N)=O)O[C@H](c2cccc(Cl)c2)[C@H]1c1ccc(Cl)cc1 (single isomer, unassigned) [Example 362, 2-((2R,5R,6R)-4-((S)-1-(tert-Butylsulfonyl)-4,4,4-trifluorobutan-2-yl)-6-(3-chlorophenyl)-5-(4-chlorophenyl)-3-oxomorpholin-2-yl)acetamide or 2-((2S,5R,6R)-4-((S)-1-(tert-butylsulfonyl)-4,4,4-trifluorobutan-2-yl)-6-(3-chlorophenyl)-5-(4-chlorophenyl)-3-oxomorpholin-2-yl)acetamide]
- IC50: 20 nM

SMILES: CC(C)(C)S(=O)(=O)C[C@H](CC(F)(F)F)N1C(=O)[C@@H](CC(N)=O)O[C@H](c2cccc(Cl)c2)[C@H]1c1ccc(Cl)cc1 (single isomer, unassigned) [Example 363, 22-((2R,5R,6R)-4-((S)-1-(tert-Butylsulfonyl)-4,4,4-trifluorobutan-2-yl)-6-(3-chlorophenyl)-5-(4-chlorophenyl)-3-oxomorpholin-2-yl)acetamide or 2-((2S,5R,6R)-4-((S)-1-(tert-butylsulfonyl)-4,4,4-trifluorobutan-2-yl)-6-(3-chlorophenyl)-5-(4-chlorophenyl)-3-oxomorpholin-2-yl)acetamide]
- IC50: 23 nM

SMILES: CNC(=O)C[C@H]1O[C@H](c2cccc(Cl)c2)[C@@H](c2ccc(Cl)cc2)N([C@H](CN(c2ccccc2F)S(=O)(=O)C2CC2)C2CC2)C1=O (single isomer, unassigned) [Example 364, 2-((2R,5R,6R)-6-(3-Chlorophenyl)-5-(4-chlorophenyl)-4-((S)-1-cyclopropyl-2-(N-(2-fluorophenyl)cyclopropanesulfonamido)ethyl)-3-oxomorpholin-2-yl)-N-methylacetamide or 2-((2S,5R,6R)-6-(3-chlorophenyl)-5-(4-chlorophenyl)-4-((S)-1-cyclopropyl-2-(N-(2-fluorophenyl)cyclopropanesulfonamido)ethyl)-3-oxomorpholin-2-yl)-N-methylacetamide]
- IC50: < 1 nM

Source: patent US9376425B2, “Heterocyclic compounds as MDM2 inhibitors for the treatment of cancer” (AMGEN INC., priority 2011, dated 2016)
